Source: article PMC6837341, “Evolutionarily conserved susceptibility of the mitochondrial respiratory chain to SDHI pesticides and its consequence on the impact of SDHIs on human cultured cells” (PLoS ONE, 2019)

Experiments:
[1] = target: T1, glycerol-3-phosphate cytochrome c reductase (G3PDH+CIII) (Lumbricus terrestris, UniProt Q34945); assay: GCCR activity, earthworm homogenate; type: biochemical
T1 sequence (Q34945 1-379): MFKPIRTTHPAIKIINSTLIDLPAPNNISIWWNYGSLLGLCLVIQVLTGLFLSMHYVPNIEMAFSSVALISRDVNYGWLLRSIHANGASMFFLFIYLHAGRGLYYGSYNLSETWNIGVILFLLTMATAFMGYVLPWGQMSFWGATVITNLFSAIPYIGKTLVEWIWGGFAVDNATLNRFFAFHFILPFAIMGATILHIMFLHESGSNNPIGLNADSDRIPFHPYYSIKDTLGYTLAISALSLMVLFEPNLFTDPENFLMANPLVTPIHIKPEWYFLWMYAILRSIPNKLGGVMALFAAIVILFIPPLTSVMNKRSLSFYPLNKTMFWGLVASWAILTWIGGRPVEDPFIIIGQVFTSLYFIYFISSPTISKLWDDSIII
Description: L. terrestris individuals (n = 5) were collected manually in a household compost in Epernon (France 28230) and identified by the person (Paule Bénit) in charge of this compost. Before use, the worms were washed 5 times with 1× phosphate-buffered saline. A fresh homogenate was prepared from the segments located between the prostomium and clitellum of the 5 individuals. Tissues were placed in 500 μl of an ice-cold medium consisting of 20 mM Tris (pH 7.2), 0.25 M sucrose, 40 mM KCl, 2 mM EGTA, and 1 mg/ml BSA and homogenized using a 1-ml glass-glass Potter-Elvehjem homogenizer. Low-speed centrifugation at 1,500 g for 5 min allowed heavy debris to be discarded. The supernatant was distributed as 50-μl aliquots and kept frozen at -80°C.
(§1) RC enzyme activities were spectrophotometrically measured using a pseudo-double-wavelength spectrophotometer (Cary 60, Agilent). Malonate-sensitive succinate quinone dichlorophenolindophenol (DCPIP) reductase (SQDR), as an indicator of the activity of the isolated SDH enzyme (isolated CII), and glycerol-3-phosphate quinone DCPIP reductase (GQDR), as a measure of the activity of the isolated glycerol-3-phosphate dehydrogenase (G3PDH), were assayed as previously described. […] With this aim, we measured the malonate-sensitive succinate cytochrome c reductase (SDH+CIII), glycerol-3-phosphate cytochrome c reductase (G3PDH+CIII) and antimycin-sensitive quinol cytochrome c reductase (CIII) as previously described.
(§2) The effects of eight different SDHIs (up to 500 μM; S2 Fig) were determined on four different biological materials. Because IC50 are known to be affected by the actual absolute activity of the tested enzyme, these IC50 were quantified using similar levels of SDH enzyme activity during the assay. IC50 values were determined using the AAT Bioquest IC50 calculator tool (https://www.aatbio.com/tools/ic50-calculator).

[2] = target: T2, succinate cytochrome c reductase (SDH+CIII) (Apis mellifera, UniProt A0A8U0WTA3+A0A8U0YBJ8+A0A8U1DE73); assay: SCCR activity, honeybee crude mitochondria; type: biochemical
T2 sequence (A0A8U1DE73 27-278): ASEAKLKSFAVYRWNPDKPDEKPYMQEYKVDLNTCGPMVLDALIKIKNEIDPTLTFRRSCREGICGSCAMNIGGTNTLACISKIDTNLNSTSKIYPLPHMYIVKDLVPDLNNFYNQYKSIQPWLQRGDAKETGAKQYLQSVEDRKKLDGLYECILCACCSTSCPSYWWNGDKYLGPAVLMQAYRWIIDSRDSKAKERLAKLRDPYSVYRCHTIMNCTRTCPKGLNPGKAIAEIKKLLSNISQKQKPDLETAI
T2 sequence (A0A8U0YBJ8 36-174): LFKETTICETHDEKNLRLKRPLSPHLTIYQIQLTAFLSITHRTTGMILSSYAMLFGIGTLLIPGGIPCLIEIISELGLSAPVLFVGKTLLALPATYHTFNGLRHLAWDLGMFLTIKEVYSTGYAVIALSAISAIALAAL
T2 sequence (A0A8U0WTA3 79-201): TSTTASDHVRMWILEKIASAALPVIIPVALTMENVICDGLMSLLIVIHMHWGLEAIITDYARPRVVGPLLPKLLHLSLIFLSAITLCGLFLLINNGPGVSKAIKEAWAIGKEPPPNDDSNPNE
Description: A. mellifera individuals (n = 5) were a kind gift from Jacques Kemp (beekeeper; Saint-Rémy-lès-Chevreuse, Yvelines, France). Whole bodies of individuals frozen in dry ice, except heads, were homogenized using a 1 ml glass-glass Potter-Elvehjem homogenizer in an ice-cold medium consisting of 20 mM Tris (pH 7.2), 0.25 M sucrose, 40 mM KCl, 2 mM EGTA, and 1 mg/ml BSA. The homogenate was centrifuged at 1,500 g for 5 min. The mitochondria contained in the supernatant were spun down at 10,000 g for 10 min. The pellet of crude mitochondria was distributed as 20-μl aliquots and kept frozen at -80°C.
as §1, §2

total SOD activity = assay: Total superoxide dismutase activity of control fibroblasts grown with SDHI; type: cell-based, Homo sapiens; details: 1 μM SDHI, 13 days, permissive medium (1 g/l glucose), n = 4
Description: To test SDHIs on growing skin fibroblasts, cells trypsinized from a confluent 75-cm^2 flask culture were seeded in 4×75-cm^2 flasks (20–25% confluency) containing GlucoMax medium (S1 Table). After allowing the culture to stand for one night, the medium was changed to the desired conditions, i.e., GlucoMax medium or MitoMax medium (S1 Table), supplemented with the chosen amount of SDHI (control conditions compensated for DMSO used to solubilize SDHI; 14 mM max). The number of cells was estimated from random images using the ImageJ processing program for 15–20 days without changing the medium (one unique exposure to SDHI).
Total SOD activity was measured in freeze-thawed cell lysates resuspended in 50 mM KH2PO4 (pH 7.8). Activity was determined by monitoring the autoxidation of pyrogallol at 420 nm and expressed as IU/mg protein [27].

## CC(C)C1C2CCC1c1c(NC(=O)c3cn(C)nc3C(F)F)cccc12 (stereo not shown) [Isopyrazam, isopyrazam]
[1]
  IC50: 83 µM
[2]
  IC50: 5.1 µM

## Cc1nn(C)c(F)c1C(=O)Nc1ccccc1C(C)CC(C)C (stereo not shown) [Penflufen, penflufen]
[1]
  IC50: > 500 µM
[2]
  IC50: 7.5 µM

## Cn1cc(C(=O)Nc2ccc(F)cc2-c2ccc(Cl)c(Cl)c2)c(C(F)F)n1 [Bixafen, bixafen]
Total SOD activity
  Total SOD activity: significant doubling
[1]
  IC50: 450 µM
[2]
  IC50: 3.3 µM

## Cn1cc(C(=O)Nc2ccccc2-c2cc(F)c(F)c(F)c2)c(C(F)F)n1 [Fluxapyroxad, fluxapyroxad]
Total SOD activity
  Total SOD activity: significant doubling
[1]
  IC50: > 500 µM
[2]
  IC50: 11.7 µM
